Results on two compounds are retold here after ChEMBL document CHEMBL1152299, “Indazole-based liver X receptor (LXR) modulators with maintained atherosclerotic lesion reduction activity but diminished stimulation of hepatic triglyceride synthesis” (J Med Chem, 2008).

A value given as a limit tells only on which side of the number the result lay.

The subject of assay [1] is HepG2. Kind of assay: Effect on SREBP1c gene expression in human HepG2 cells. The class given is functional, cell-based.
Assay [2] deals with T1, Progesterone receptor (Homo sapiens, UniProt P06401).
T1 sequence (P06401 whole entry): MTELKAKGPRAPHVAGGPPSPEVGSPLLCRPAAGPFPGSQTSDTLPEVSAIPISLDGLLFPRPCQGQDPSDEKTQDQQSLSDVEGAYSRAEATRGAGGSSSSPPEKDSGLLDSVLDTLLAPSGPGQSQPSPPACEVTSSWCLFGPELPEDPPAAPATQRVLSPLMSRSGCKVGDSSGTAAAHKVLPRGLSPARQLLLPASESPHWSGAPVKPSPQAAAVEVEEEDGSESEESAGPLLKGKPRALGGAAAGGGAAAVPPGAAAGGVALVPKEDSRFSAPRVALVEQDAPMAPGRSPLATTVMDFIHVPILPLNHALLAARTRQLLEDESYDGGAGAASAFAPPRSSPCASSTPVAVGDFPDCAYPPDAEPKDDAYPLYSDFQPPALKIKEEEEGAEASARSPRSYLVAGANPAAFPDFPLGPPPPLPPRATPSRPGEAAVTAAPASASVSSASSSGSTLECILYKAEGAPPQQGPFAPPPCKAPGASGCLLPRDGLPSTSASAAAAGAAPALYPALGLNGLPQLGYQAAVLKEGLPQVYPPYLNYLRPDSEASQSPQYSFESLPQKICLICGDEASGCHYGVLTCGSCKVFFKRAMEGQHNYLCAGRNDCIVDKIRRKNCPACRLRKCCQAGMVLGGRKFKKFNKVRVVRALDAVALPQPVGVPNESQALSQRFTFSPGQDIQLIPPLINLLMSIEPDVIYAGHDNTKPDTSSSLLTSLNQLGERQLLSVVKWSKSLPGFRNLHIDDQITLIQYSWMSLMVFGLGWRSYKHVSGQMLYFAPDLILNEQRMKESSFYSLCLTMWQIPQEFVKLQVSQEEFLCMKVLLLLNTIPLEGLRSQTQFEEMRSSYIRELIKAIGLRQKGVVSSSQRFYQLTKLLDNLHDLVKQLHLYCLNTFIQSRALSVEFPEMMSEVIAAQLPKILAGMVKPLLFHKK
Briefly: Displacement of radiolabeled progesterone from human progesterone receptor by filter paper assay.

In assay [3] the test system is HepG2. Briefly: Effect on triglyceride accumulation in human HepG2 cells. The format is functional, cell-based.
The subject of assay [4] is HepG2. Briefly: Effect on triglyceride accumulation in human HepG2 cells relative to TO901317. The class given is functional.
Assay [5] addresses T2, Oxysterols receptor LXR-alpha (Homo sapiens, UniProt Q13133).
Assay [6] addresses T3, Glucocorticoid receptor (Homo sapiens, UniProt P04150).
T3 sequence (P04150 whole entry): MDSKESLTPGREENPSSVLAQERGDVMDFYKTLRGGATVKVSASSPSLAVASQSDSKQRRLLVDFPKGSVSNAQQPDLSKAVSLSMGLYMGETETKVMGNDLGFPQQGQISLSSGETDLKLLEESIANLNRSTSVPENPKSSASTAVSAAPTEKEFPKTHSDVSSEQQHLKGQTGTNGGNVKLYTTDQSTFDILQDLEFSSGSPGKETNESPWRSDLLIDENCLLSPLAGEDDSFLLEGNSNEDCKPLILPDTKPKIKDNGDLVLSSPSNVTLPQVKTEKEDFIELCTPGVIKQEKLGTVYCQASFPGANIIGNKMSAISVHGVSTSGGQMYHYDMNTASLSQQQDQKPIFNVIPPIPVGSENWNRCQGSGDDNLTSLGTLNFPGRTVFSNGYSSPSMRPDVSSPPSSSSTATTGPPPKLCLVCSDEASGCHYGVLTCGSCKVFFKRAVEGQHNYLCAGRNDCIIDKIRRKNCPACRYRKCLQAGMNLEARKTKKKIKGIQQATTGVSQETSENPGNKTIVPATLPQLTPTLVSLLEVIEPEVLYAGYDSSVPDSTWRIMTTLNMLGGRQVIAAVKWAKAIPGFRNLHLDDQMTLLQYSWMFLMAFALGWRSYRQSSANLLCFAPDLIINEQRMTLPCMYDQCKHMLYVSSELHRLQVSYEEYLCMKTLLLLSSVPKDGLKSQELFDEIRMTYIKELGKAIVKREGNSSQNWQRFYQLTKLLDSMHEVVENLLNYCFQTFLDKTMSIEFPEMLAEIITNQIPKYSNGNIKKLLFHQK
Kind of assay: Displacement of radiolabeled Dexamethasone from human glucocorticoid receptor by filter paper assay.

Assay [7] concerns the target T4, Oxysterols receptor LXR-beta (Homo sapiens, UniProt P55055).
T4 sequence (P55055 whole entry): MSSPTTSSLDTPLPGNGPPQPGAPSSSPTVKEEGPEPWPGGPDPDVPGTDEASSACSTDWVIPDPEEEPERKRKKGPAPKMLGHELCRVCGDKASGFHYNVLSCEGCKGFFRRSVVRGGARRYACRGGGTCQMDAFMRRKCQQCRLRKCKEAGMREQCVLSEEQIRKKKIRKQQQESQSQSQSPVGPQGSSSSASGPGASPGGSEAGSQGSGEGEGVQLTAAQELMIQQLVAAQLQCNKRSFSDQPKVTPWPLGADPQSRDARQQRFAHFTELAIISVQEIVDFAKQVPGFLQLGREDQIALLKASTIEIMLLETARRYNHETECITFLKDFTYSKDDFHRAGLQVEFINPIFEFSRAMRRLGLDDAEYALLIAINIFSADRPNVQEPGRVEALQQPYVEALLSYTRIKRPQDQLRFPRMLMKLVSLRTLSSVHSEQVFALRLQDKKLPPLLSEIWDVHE
Briefly: Agonist activity at human recombinant LXRbeta ligand binding domain in human HuH7 cells co-transfected with fused Gal4-DBD by transactivation assay. The class given is cell-based, Huh-7.

In assay [8] the test system is HepG2. Briefly: Effect on SREBP1c gene expression in human HepG2 cells relative to TO901317. The format is functional.
Assay [9] relates to THP-1. Briefly: Effect on ABCA1 gene expression in human differentiated THP1 cells. The class given is functional, cell-based.
Assay [10] concerns the target T2, Oxysterols receptor LXR-alpha. The source holds these as a separate data set.
Assay [11] concerns THP-1. Briefly: Effect on ABCA1 gene expression in human differentiated THP1 cells relative to TO901317. The format is functional.
Assay [12] deals with T5, Nuclear receptor subfamily 1 group I member 2 (Homo sapiens, UniProt O75469).
T5 sequence (O75469 whole entry): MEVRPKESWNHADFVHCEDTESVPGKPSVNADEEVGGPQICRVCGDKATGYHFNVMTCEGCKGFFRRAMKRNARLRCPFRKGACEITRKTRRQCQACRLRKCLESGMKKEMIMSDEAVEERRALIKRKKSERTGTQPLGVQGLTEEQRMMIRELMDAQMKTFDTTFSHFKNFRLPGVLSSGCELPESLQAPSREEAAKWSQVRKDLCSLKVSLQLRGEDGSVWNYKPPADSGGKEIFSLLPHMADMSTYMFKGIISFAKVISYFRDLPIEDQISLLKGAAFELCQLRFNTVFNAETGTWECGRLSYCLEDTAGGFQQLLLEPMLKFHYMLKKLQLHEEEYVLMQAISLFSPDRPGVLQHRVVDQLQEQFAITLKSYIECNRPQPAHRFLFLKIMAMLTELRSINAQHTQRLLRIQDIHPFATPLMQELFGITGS

Assay [13] has as its target T4, Oxysterols receptor LXR-beta.

As for `Fc1ccc(-c2c3cccc(C(F)(F)F)c3nn2Cc2ccc(F)cc2Cl)cc1` [LXR-623], the concentration giving a half-maximal response (EC50) in [1] was determined as 2.11 µM; in [3], 1.91 µM; in assay [5] it was 6.66 µM; in [7] it was 3.67 µM; in [9], 0.541 µM. The IC50 in assay [2] was above 1 µM; in assay [6], 1 µM; in [10], 0.179 µM; in assay [12], 1.77 µM; in assay [13], 0.024 µM. Also, the Efficacy in assay [4] is 35%; in [8], 58%; in assay [11] it was 100%.

Take `Fc1ccc(-c2c3cccc(C(F)(F)F)c3nn2Cc2ccccc2F)cc1`: the half-maximal effective concentration (EC50) in assay [1] is 1.22 µM; in assay [3] it was 0.998 µM; in [5], 6.1 µM; in [7] it was 4.15 µM; in [9] it was 0.551 µM. For the same compound, the IC50 in assay [2] was above 10 µM; in assay [6], 7.2 µM; in [10] it was 0.248 µM; in assay [12] it was 2.16 µM; in assay [13], 0.033 µM. The Efficacy is listed as 38% in assay [4], 72% in assay [8] and 89% in assay [11].

The term EC50 denotes the concentration giving half of the maximal effect. Usually IC50 stands for the concentration that gives 50% inhibition. High values mean weaker potency, low ones greater potency.
